Each structure is given as a SMILES string.

We go through 1 compound from patent publication US20180028680A1, “GLYCOOPTIMIZED ANTIBODY DRUG CONJUGATES” (GLYCOTOPE GMBH, priority 2015, published 2018).

This assay deals with SK-BR-3 cells. Put plainly: Inhibition of proliferation, MTT assay. It is filed as cell-based, human. The conditions noted are these: 20 nM, positive control. (In general: Tetrazolium assays rely on reduction of a dye to a coloured formazan, in cell work by metabolically active cells.)

Protocol: The MTT assay is a non-radioactive assay based on the cleavage of the soluble yellow tetrazolium salt MTT (3-[4,5-Dimethylthiazol-2-yl]-2,5-diphenyltetrazolium bromide; Thiazolyl Blue) by mitochondrial dehydrogenases of viable cells. […] The absorbance signal is a direct measure for viable cells in the culture.
Human IgG1 or medium alone served as negative controls. Briefly, SK-BR-3 cells were grown for 2 days in 96-well flat bottom plates. […] The supernatant was completely removed and MTT was added. Cells were incubated for 2 hours with MTT at 37° C. in a humidified CO2 incubator. The supernatant was removed and cells were lysed using HCI and 2-propanol containing lysis buffer for 1 h at room temperature in the dark. Absorbance at 570 nm/630 nm was measured in a plate reader Infinite F200 (Tecan Austria GmbH).
Proliferation after 4 days of incubation with the antibodies was calculated relative to the proliferation in the medium control.

With `CC(=O)O[C@H]1C(=O)[C@@]2(C)[C@H]([C@H](OC(=O)c3ccccc3)[C@]3(O)C[C@H](OC(=O)[C@H](O)[C@@H](NC(=O)c4ccccc4)c4ccccc4)C(C)=C1C3(C)C)[C@]1(OC(C)=O)CO[C@@H]1C[C@@H]2O` [Taxol], the “proliferation compared to the medium control” value is 6%.
